According to patent US20090099029A1, “Methods and substrates for conducting assays” (Invitrogen Corporation, priority 2005, published 2009):
Read-outs that look alike come from different tables or passages of the source.

Assays:
Experiment in all cases: Further analysis of a plurality of inhibitors and a plurality of kinases (Table 5 inhibition results)
Assay type in all cases: biochemical
Set-up in all cases: scale not given here
kinases of Table 5 [1] = target: kinases of Table 5 (Homo sapiens, UniProt Q8IVW4); settings: inhibitor 100 uM; for Inhibition level: kinase CDKL3; for Inhibition Results (Level): kinase CDKL3 (Part II, plate F12, Domain 0)
kinases of Table 5 (Homo sapiens, UniProt Q8IVW4), sequence (Q8IVW4 whole entry): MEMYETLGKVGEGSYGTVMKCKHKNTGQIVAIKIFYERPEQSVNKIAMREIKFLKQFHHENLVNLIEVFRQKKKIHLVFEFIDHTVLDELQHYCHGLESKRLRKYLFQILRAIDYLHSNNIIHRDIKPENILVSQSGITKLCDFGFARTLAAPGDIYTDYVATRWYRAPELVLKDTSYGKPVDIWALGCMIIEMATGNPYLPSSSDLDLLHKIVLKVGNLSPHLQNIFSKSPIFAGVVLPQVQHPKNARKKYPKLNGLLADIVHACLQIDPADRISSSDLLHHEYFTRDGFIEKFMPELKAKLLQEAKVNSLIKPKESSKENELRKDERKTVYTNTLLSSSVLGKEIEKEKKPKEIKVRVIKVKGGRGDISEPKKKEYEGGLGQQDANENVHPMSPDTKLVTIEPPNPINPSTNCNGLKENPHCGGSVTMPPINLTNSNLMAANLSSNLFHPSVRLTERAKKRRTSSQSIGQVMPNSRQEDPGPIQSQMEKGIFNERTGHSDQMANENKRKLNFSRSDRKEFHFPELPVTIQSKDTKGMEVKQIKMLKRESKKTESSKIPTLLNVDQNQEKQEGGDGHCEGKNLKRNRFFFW
From the text: (§1) The wash solution is then discarded.

kinases of Table 5 [2] = target: T1, kinases of Table 5 (Homo sapiens, UniProt P54753); settings: for Inhibition level: kinase EPHB3; for Inhibition Results (Level): kinase EPHB3 (Part II, plate B5, Domain 1)
T1 sequence (P54753 34-998): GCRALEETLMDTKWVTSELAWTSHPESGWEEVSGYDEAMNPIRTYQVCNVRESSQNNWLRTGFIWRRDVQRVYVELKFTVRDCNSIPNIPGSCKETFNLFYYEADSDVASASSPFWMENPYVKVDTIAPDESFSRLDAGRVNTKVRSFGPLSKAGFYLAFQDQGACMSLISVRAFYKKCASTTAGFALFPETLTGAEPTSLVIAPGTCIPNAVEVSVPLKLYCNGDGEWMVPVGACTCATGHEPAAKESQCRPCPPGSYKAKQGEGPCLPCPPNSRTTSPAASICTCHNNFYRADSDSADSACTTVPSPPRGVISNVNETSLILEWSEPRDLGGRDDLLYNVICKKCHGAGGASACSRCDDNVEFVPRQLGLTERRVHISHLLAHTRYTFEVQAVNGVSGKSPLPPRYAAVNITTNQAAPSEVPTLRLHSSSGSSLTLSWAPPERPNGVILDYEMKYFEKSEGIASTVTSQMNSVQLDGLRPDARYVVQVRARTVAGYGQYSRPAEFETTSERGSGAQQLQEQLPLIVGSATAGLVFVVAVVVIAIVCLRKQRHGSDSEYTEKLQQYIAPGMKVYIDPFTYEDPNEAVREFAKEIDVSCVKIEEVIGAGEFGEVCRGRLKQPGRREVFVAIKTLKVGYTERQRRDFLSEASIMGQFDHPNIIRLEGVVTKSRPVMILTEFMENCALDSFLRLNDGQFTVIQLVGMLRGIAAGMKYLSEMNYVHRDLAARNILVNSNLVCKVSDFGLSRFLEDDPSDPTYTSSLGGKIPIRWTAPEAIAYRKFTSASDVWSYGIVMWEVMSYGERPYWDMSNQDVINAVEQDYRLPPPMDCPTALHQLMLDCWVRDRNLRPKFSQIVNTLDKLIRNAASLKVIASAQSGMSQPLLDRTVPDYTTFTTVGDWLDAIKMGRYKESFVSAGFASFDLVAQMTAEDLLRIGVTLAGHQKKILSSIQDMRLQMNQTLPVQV
From the text: as §1

kinases of Table 5 [3] = target: T2, kinases of Table 5 (Homo sapiens, UniProt P41743); settings: kinase PRKCI (Part I, plate A2, Domain 0)
T2 sequence (P41743 1-596): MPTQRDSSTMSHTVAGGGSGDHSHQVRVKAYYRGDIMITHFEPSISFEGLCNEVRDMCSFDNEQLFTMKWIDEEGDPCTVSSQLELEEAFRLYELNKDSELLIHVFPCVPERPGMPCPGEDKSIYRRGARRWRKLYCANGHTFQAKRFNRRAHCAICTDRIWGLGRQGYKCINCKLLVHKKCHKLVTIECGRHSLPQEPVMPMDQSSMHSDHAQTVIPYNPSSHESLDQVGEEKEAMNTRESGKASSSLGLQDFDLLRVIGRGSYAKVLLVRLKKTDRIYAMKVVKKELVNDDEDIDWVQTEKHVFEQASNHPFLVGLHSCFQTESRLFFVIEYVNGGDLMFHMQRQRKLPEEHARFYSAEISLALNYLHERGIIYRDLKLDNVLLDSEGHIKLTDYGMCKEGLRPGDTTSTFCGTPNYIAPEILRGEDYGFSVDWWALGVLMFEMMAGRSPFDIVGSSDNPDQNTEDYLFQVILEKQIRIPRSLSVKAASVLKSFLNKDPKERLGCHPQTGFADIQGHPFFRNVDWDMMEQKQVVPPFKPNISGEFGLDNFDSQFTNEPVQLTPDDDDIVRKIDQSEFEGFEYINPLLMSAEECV
From the text: as §1

kinases of Table 5 [4] = target: T3, kinases of Table 5 (Homo sapiens, UniProt Q12866); settings: inhibitor 100 uM; for Inhibition level: kinase MERTK; for Inhibition Results (Level): kinase MERTK (Part II, plate B11, Domain 1)
T3 sequence (Q12866 21-999): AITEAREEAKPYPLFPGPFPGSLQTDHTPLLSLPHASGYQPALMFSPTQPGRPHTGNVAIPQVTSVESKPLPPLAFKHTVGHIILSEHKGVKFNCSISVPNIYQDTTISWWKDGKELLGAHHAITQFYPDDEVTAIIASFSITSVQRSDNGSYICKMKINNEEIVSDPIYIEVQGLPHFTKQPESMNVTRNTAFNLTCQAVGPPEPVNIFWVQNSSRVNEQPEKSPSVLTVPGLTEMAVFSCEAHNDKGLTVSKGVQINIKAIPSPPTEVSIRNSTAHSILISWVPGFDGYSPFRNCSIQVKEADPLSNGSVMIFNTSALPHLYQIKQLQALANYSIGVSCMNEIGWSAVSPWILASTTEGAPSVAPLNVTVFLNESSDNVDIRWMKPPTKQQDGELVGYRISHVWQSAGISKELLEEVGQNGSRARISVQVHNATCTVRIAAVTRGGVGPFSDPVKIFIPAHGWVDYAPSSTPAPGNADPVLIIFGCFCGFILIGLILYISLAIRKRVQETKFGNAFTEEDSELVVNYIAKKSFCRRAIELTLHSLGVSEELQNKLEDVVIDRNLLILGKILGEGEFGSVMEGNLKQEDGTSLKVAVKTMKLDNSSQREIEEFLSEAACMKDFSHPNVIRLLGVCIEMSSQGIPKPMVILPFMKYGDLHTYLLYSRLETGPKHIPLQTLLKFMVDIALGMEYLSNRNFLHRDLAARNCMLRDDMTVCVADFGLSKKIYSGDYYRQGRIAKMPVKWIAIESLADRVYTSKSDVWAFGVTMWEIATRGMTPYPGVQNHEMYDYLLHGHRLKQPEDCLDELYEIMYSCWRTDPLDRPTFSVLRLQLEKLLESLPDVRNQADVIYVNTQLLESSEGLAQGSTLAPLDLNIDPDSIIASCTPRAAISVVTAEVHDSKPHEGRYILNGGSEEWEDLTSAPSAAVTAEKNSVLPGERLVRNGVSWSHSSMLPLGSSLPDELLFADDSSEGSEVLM
From the text: as §1

kinases of Table 5 [5] = target: kinases of Table 5 (Homo sapiens, UniProt Q13557)
kinases of Table 5 (Homo sapiens, UniProt Q13557), sequence (Q13557 whole entry): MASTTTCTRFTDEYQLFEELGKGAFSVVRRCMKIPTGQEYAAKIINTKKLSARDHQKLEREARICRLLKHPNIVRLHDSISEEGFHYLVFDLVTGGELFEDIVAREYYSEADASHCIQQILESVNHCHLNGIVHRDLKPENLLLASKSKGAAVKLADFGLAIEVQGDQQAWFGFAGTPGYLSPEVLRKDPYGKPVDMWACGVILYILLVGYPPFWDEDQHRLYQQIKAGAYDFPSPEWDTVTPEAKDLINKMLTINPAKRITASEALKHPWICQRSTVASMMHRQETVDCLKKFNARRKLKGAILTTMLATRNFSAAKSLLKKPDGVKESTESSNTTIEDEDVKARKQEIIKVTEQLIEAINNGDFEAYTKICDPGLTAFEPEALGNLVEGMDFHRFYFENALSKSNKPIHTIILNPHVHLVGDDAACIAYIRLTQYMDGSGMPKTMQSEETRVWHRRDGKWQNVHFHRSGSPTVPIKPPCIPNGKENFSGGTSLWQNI
From the text: as §1

kinases of Table 5 [6] = target: kinases of Table 5 (Homo sapiens, UniProt P24723); settings: for Inhibition level: kinase PRKCH; for Inhibition Results (Level): kinase PRKCH (Part II, plate B3, Domain 0)
kinases of Table 5 (Homo sapiens, UniProt P24723), sequence (P24723 whole entry): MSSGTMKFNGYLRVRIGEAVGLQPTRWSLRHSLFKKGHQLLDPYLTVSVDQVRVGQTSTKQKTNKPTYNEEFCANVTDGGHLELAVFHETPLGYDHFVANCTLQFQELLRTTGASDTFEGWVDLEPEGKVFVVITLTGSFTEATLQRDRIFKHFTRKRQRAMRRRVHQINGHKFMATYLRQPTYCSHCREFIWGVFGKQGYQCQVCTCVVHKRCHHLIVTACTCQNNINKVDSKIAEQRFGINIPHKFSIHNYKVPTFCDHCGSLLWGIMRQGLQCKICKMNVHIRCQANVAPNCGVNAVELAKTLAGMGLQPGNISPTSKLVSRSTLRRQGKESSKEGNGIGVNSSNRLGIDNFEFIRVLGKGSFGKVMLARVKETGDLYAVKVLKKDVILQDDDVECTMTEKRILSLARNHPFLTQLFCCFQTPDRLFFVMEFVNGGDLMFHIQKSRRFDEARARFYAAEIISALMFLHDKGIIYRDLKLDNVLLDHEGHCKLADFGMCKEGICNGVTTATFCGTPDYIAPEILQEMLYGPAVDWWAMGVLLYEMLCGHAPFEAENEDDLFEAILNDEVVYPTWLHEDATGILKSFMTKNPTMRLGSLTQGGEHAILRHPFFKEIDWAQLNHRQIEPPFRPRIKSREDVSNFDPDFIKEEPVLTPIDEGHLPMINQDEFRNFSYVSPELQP
From the text: as §1

[7] = kinase CAMK2D, inhibitor 100 uM
[8] = kinase CAMK2D, concentration not given

Compound	Inhibition level (kinases of Table 5 [1])	Inhibition level (kinases of Table 5 [2]; inhibitor 100 uM)	Inhibition Results (Level) (kinases of Table 5 [3]; inhibitor 100 uM)	Inhibition level (kinases of Table 5 [4])	Inhibition level (kinases of Table 5 [5]; [7])	Inhibition level (kinases of Table 5 [6]; inhibitor 100 uM)	Inhibition level (kinases of Table 5 [2]; concentration not given)	Inhibition Results (Level) (kinases of Table 5 [3]; inhibitor <3.7 mM)	Inhibition level (kinases of Table 5 [5]; [8])	Inhibition level (kinases of Table 5 [6]; concentration not given)	Inhibition Results (Level) (kinases of Table 5 [3]; inhibitor 90 uM)	Inhibition Results (Level) (kinases of Table 5 [1])	Inhibition Results (Level) (kinases of Table 5 [2]; inhibitor 100 uM)	Inhibition Results (Level) (kinases of Table 5 [4])	Inhibition Results (Level) (kinases of Table 5 [6]; inhibitor 100 uM)	Inhibition level (kinases of Table 5 [5])
N#C/C(=C/c1ccc(O)c(O)c1)C(=O)NCc1ccccc1 [AG 490]	2	2	2	2	2	2	–	–	–	–	–	–	–	–	–	–
O=c1c(O)c(-c2ccc(O)c(O)c2)oc2cc(O)cc(O)c12 [Quercetin]	–	–	0	–	–	–	–	–	–	–	–	0	2	1	0	–
CC(=O)c1c(O)c(C)c(O)c(Cc2c(O)c3c(c(C(=O)/C=C/c4ccccc4)c2O)OC(C)(C)C=C3)c1O [Rottlerin (Mallotoxin)]	–	–	2	–	2	–	–	–	–	–	–	1	2	2	2	–
CN[C@@H]1C[C@H]2O[C@@](C)([C@@H]1OC)n1c3ccccc3c3c4c(c5c6ccccc6n2c5c31)C(=O)NC4 [Staurosporine]	–	–	–	–	–	–	0	–	–	–	–	–	–	–	–	2

More lines, main results first:

Inhibition level (kinases of Table 5 [1])	Inhibition level (kinases of Table 5 [2]; inhibitor 100 uM)	Inhibition Results (Level) (kinases of Table 5 [3]; inhibitor 100 uM)	Inhibition level (kinases of Table 5 [4])	Inhibition level (kinases of Table 5 [5]; [7])	Inhibition level (kinases of Table 5 [6]; inhibitor 100 uM)	Inhibition level (kinases of Table 5 [2]; concentration not given)	Inhibition Results (Level) (kinases of Table 5 [3]; inhibitor <3.7 mM)	Inhibition level (kinases of Table 5 [5]; [8])	Inhibition level (kinases of Table 5 [6]; concentration not given)	Inhibition Results (Level) (kinases of Table 5 [3]; inhibitor 90 uM)	Compound	Inhibition Results (Level) (kinases of Table 5 [1])	Inhibition Results (Level) (kinases of Table 5 [2]; inhibitor 100 uM)	Inhibition Results (Level) (kinases of Table 5 [4])	Inhibition Results (Level) (kinases of Table 5 [6]; inhibitor 100 uM)	Inhibition level (kinases of Table 5 [5])
1	2	0	2	2	0	–	–	–	–	–	COc1cc2ncnc(Nc3cccc(Cl)c3)c2cc1OC [AG 1478]	–	–	–	–	–
0	2	2	2	2	2	0	0	0	0	–	O=c1c(-c2ccc(O)cc2)coc2cc(O)cc(O)c12 [Genistein]	–	–	–	–	–
–	–	2	–	0	–	–	–	–	–	–	O=S(=O)(NCCNC/C=C/c1ccc(Br)cc1)c1cccc2cnccc12 [H-89]	1	1	2	2	–
2	2	1	2	2	2	–	–	–	–	–	CC(C)(C)n1nc(-c2ccc(Cl)cc2)c2c(N)ncnc21 [PP2]	–	–	–	–	–
2	2	0	2	0	2	0	–	2	2	2	Cn1cc(C2=C(c3cn(CCCSC(=N)N)c4ccccc34)C(=O)NC2=O)c2ccccc21 [Ro-31-8220]	–	–	–	–	–
